Experimental data taken from PubChem BioAssay AID1417 (Emory University Molecular Libraries Screening Center, 2008).

target: Induced myeloid leukemia cell differentiation protein Mcl-1 (Homo sapiens) (UniProt Q07820); assay: Mcl-1/Noxa binding inhibitor potency, dose response, biochemical, TR-FRET (AID 1417); details: Mcl-1/Noxa peptide interaction, cell-free TR-FRET (terbium/rhodamine), 2 h; measured here: absolute IC50
Sequence (Q07820 whole entry, looked up): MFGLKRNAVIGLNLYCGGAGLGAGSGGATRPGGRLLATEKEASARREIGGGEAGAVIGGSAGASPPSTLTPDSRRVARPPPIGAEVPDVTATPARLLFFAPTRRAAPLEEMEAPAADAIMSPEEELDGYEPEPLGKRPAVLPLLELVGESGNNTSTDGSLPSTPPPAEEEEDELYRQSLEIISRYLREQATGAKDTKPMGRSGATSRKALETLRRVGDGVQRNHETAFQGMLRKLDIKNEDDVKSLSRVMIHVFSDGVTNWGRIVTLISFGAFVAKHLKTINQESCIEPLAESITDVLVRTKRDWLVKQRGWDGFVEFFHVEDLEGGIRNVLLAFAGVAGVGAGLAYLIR

Q: O=C1N=c2ccccc2=C1c1c(O)n(-c2cccc(F)c2)[nH]c1=O was tested. Which IC50 did it give?
A: < 400 nM

Q: Which IC50 does the source give for Oc1ccc(/C=N/Nc2nc(-c3cccnc3)nc3ccccc23)c(O)c1 here?
A: > 54000 nM

Q: Which IC50 does the source give for COc1ccc2nc(-n3c(O)c(C4=c5ccccc5=NC4=O)[nH]c3=S)sc2c1 here?
A: < 400 nM

Q: Which IC50 does the source give for O=C1NC(=S)N(c2ccccc2F)C(=O)/C1=C\c1cccs1 here?
A: 3770 nM

Q: With Cc1ccc(N2C(=O)NC(=O)/C(=C/c3cnc(-c4ccccc4)nc3)C2=O)cc1C as the compound, how does the IC50 read?
A: 16300 nM

Q: With Cc1ccc(/C=C/C(=O)NCc2ccccn2)o1 as the compound, how does the IC50 read?
A: 4930 nM

Q: For CCOC(=O)c1c(C)oc2c1c(C(c1cccnc1)N1CCOCC1)c(O)c1ccccc12 (stereo unspecified), which IC50 is on record?
A: < 400 nM

Q: With Cc1ccc(N=Nc2ccc(O)c(/C=N\NC(=O)c3ccc(N)cc3)c2)cc1C as the compound, how does the IC50 read?
A: 2240 nM

Q: Which IC50 does the source give for O=C1/C(=C/c2ccc(O)c(O)c2)Oc2cc(O)ccc21 here?
A: 1160 nM

Q: With O=C(CCN1C(=O)S/C(=C\c2ccccc2)C1=O)Nc1ccc(S(=O)(=O)Nc2nccs2)cc1 as the compound, how does the IC50 read?
A: 7650 nM

Q: With O=C(O)CCN1C(=O)/C(=C\c2ccc(-c3nc4ccccc4s3)o2)SC1=S as the compound, how does the IC50 read?
A: < 400 nM

Q: With CC(=O)c1ccc(NC(=O)CC2Nc3cccc4cccc(c34)NC2=O)cc1 (stereo unspecified) as the compound, how does the IC50 read?
A: 3620 nM

Q: How did the IC50 turn out when COc1ccc(-n2c(N)c(-c3nc4ccccc4n3C)sc2=S)cc1 was run?
A: > 54000 nM

Q: How did the IC50 turn out when O=C(O)c1cccc(-c2ccc(/C=c3/sc4nc5ccccc5n4c3=O)o2)c1 was run?
A: 1020 nM

Q: Cc1ccc(-n2cccc2/C=C2\C(=N)N3N=C(c4ccco4)SC3=NC2=O)cc1 was tested. Which IC50 did it give?
A: 1530 nM

Q: With Cc1ccc(-c2nc3c(c(=O)[nH]c(=O)n3Cc3ccccc3)n2C)o1 as the compound, how does the IC50 read?
A: < 400 nM

Q: Which IC50 does the source give for CCOC(=O)N1CCN(c2c(NCCCN(CC)Cc3ccccc3)c(=O)c2=O)CC1 here?
A: 4060 nM

Q: For C=CCN1C(=O)/C(=C2/C(=O)N(CC(=O)O)c3ccccc32)S/C1=N/c1nccs1, which IC50 is on record?
A: < 400 nM

Q: With CCN(CC)S(=O)(=O)c1cccc(C(=O)N/N=C/c2ccc(O)c(O)c2O)c1 as the compound, how does the IC50 read?
A: < 400 nM

Q: For Cc1cc(C)c(S(=O)(=O)/N=C2/C=C(Sc3ncn[nH]3)C(=O)c3ccccc32)cc1C, which IC50 is on record?
A: < 400 nM

Q: O=c1[nH]c(C(Cl)Cl)nc2sc3c(c12)CCN(Cc1ccccc1)C3 was tested. Which IC50 did it give?
A: > 54000 nM

Q: For COc1ccc(CN2C(=O)/C(=C/c3ccc(-c4ccc(Cl)c(C(=O)O)c4)o3)SC2=S)cc1, which IC50 is on record?
A: 1560 nM

Q: With O=C(CSc1cccc[n+]1[O-])Nc1cc2c(cc1Cl)C(=O)c1ccccc1C2=O as the compound, how does the IC50 read?
A: 3740 nM

Q: With O=C(Cn1nc(C(=O)O)c2ccccc2c1=O)Nc1ccc2c(c1)C(=O)c1ccccc1C2=O as the compound, how does the IC50 read?
A: 4620 nM

Q: Cc1cc(C(=O)COC(=O)c2cc(O)c3ccccc3c2O)c(C)n1CC1CCCO1 (stereo unspecified) was tested. Which IC50 did it give?
A: < 400 nM

Q: O=C(O)CCCCCN1C(=O)/C(=C\c2cn(-c3ccccc3)nc2-c2cccs2)SC1=S was tested. Which IC50 did it give?
A: 2500 nM

Q: Which IC50 does the source give for CC(=O)Nc1sc(N/N=C\c2ccc(O)cc2)nc1-c1cccs1 here?
A: 1070 nM

Q: For CC(=O)Nc1ccc(C2=NNC(=Nc3ccc(S(=O)(=O)N4CCOCC4)cc3)SC2)cc1, which IC50 is on record?
A: < 400 nM

Q: With CC1Oc2cc3c(-c4c(O)cc(O)c5c(O)c6c(cc45)OC(C)C(C)C6=O)c(O)cc(O)c3c(O)c2C(=O)C1C (stereo unspecified) as the compound, how does the IC50 read?
A: < 400 nM

Q: CCOC(=O)c1sc2nc3c(SCCC(=O)O)cc(C(=O)c4cc(OC)ccc4O)cn3c(=O)c2c1C was tested. Which IC50 did it give?
A: 955 nM

Q: With Oc1cc2c(cc1C(c1ccc(Cl)c(Cl)c1)N1CCCC1)OCO2 (stereo unspecified) as the compound, how does the IC50 read?
A: > 54000 nM

Q: CC1CCN(C(c2ccc(N(C)C)cc2)c2nnnn2C(C)(C)C)CC1 (stereo unspecified) was tested. Which IC50 did it give?
A: 12500 nM

Q: How did the IC50 turn out when CCCCn1c(NCc2ccc(N(C)C)cc2)nc2ccccc21 was run?
A: 1140 nM

Q: For Oc1ccc(N2CCN(c3ncnc4sc(-c5ccccc5)cc34)CC2)cc1, which IC50 is on record?
A: 1150 nM

Q: For Cc1ccc(-n2cccc2/C=C2/C(=N)N3C(=NC2=O)SN=C3S(C)(=O)=O)cc1, which IC50 is on record?
A: 5400 nM

Q: Which IC50 does the source give for O=C(NCCO)c1ccc2nc(-c3ccco3)c(-c3ccco3)nc2c1 here?
A: 527 nM

Q: COc1ccc(S(=O)(=O)Nc2cc(Sc3ncn[nH]3)c(O)c3ccccc23)cc1 was tested. Which IC50 did it give?
A: < 400 nM

Q: Which IC50 does the source give for N#C/C(=C\c1ccc(C(=O)O)cc1)c1nc2sc3c(c2c(=O)[nH]1)CCCC3 here?
A: 2950 nM

Q: With CCn1nc(C)c(/C=N/NC(=O)Cc2ccc(Cl)cc2)c1C as the compound, how does the IC50 read?
A: > 54000 nM

Q: COc1ccc2nc(S(=O)Cc3ncc(C)c(OC)c3C)[nH]c2c1 (stereo unspecified) was tested. Which IC50 did it give?
A: < 400 nM

Q: Which IC50 does the source give for O=C(Nc1cccc(S(=O)(=O)N2CCOCC2)c1)c1c2c(nc3ccccc13)CCC2 here?
A: 3080 nM
